Test [1] concerns M. intracellulare ATCC 13950. Kind of test: MIC against MAC strains, agar dilution. The settings on record: S. No. 06 Mi-1, M. intracellulare ATCC 13950; Middle Brook 7H10 + OADC, 37° C., 14-21 days. Format: cell-based.
In a further test the test system is M avium ATCC 700897. The experiment in a line: MIC against MAC strains, agar dilution. The test is classed as cell-based, Mycobacterium avium. Particulars: S. No. 05 Ma-6, M avium ATCC 700897; Middle Brook 7H10 + OADC, 37° C., 14-21 days. (In general: Agar dilution tests growth on a series of plates holding different concentrations.)
Another test concerns M. tuberculosis M-168. The experiment in a line: MIC against M. tuberculosis strains, agar dilution. Format: cell-based, Mycobacterium tuberculosis. Particulars: S. No. 09 Mt-, Middle Brook 7H10 + OADC, 37° C., 14-21 days.
Test [2] deals with M. avium intracellulare 18/98. The experiment in a line: MIC against MAC strains, agar dilution. Format: cell-based. Particulars: S. No. 16 Mai-9, M. avium intracellulare 18/98; Middle Brook 7H10 + OADC, 37° C., 14-21 days.
The next test concerns M. tuberculosis 50. Kind of test: MIC against M. tuberculosis strains, agar dilution. Format: cell-based, Mycobacterium tuberculosis. The settings on record: S. No. 12 Mt-, Middle Brook 7H10 + OADC, 37° C., 14-21 days.
Test [3] has as its system M. tuberculosis PC. Kind of test: MIC against M. tuberculosis strains, agar dilution. The test is classed as cell-based, Mycobacterium tuberculosis. Particulars: S. No. 20 Mt-, Middle Brook 7H10 + OADC, 37° C., 14-21 days.
Test [4] deals with M. tuberculosis SGPGI. The experiment in a line: MIC against M. tuberculosis strains, agar dilution. Format: cell-based, Mycobacterium tuberculosis. The settings on record: S. No. 06 Mt-, Middle Brook 7H10 + OADC, 37° C., 14-21 days.
In a further test the test system is M. tuberculosis H37Rv. The experiment in a line: MIC against M. tuberculosis strains, agar dilution. The test is classed as cell-based, Mycobacterium tuberculosis. Particulars: S. No. 04 Mt-, Middle Brook 7H10 + OADC, 37° C., 14-21 days.
Another test concerns M. avium AIIMS. Kind of test: MIC against MAC strains, agar dilution. Format: cell-based, Mycobacterium avium. Particulars: S. No. 04 Ma-4, M. avium AIIMS; Middle Brook 7H10 + OADC, 37° C., 14-21 days.
The test system of another test is M. tuberculosis PC 4782. Kind of test: MIC against M. tuberculosis strains, agar dilution. The settings on record: S. No. 21 Mt-, Middle Brook 7H10 + OADC, 37° C., 14-21 days. The test is classed as cell-based, Mycobacterium tuberculosis.
Another test concerns M. avium ATCC 49601. The experiment in a line: MIC against MAC strains, agar dilution. Format: cell-based, Mycobacterium avium. The settings on record: S. No. 01 Ma-1, M. avium ATCC 49601; Middle Brook 7H10 + OADC, 37° C., 14-21 days.
In test [5] the test system is M. tuberculosis PC. Kind of test: MIC against M. tuberculosis strains, agar dilution. Format: cell-based, Mycobacterium tuberculosis. The settings on record: S. No. 19 Mt-, Middle Brook 7H10 + OADC, 37° C., 14-21 days.
The subject of test [6] is M. tuberculosis SGPGI. The experiment in a line: MIC against M. tuberculosis strains, agar dilution. Format: cell-based, Mycobacterium tuberculosis. Particulars: S. No. 07 Mt-, Middle Brook 7H10 + OADC, 37° C., 14-21 days.
Another test relates to M avium ATCC 25291. The experiment in a line: MIC against MAC strains, agar dilution. Format: cell-based, Mycobacterium avium. Particulars: S. No. 02 Ma-2, M avium ATCC 25291; Middle Brook 7H10 + OADC, 37° C., 14-21 days.
The test system of another test is M. avium ATCC 1723. The experiment in a line: MIC against MAC strains, agar dilution. The test is classed as cell-based, Mycobacterium avium. The settings on record: S. No. 03 Ma-3, M. avium ATCC 1723; Middle Brook 7H10 + OADC, 37° C., 14-21 days.
For the next test, the system named is M. intracellulare F21/12. Kind of test: MIC against MAC strains, agar dilution. The settings on record: S. No. 08 Mi-3, M. intracellulare F21/12; Middle Brook 7H10 + OADC, 37° C., 14-21 days. Format: cell-based.

The structures appear in SMILES notation.

Usually MIC stands for the smallest concentration in the dilution series that meets the test's criterion for growth inhibition. As for `CO[C@H]1/C=C/O[C@@]2(C)Oc3c(C)c(O)c4c(O)c(c(/C=N/N5CCN(C)CC5)c(O)c4c3C2=O)NC(=O)/C(C)=C\C=C\[C@H](C)[C@H](O)[C@@H](C)[C@@H](O)[C@@H](C)[C@H](OC(C)=O)[C@@H]1C` [RIF], the minimum inhibitory concentration (MIC) was 4.0 mg/L in [1]; 1.0 mg/L with M avium ATCC 700897; 16 mg/L in the test on M. tuberculosis M-168; more than 32 mg/L in test [2]; more than 32 mg/L with M. tuberculosis 50; 2.0 mg/L in the test with M. tuberculosis PC [3]. Moreover, the MIC is more than 32 mg/L in the test with M. tuberculosis SGPGI [4]; 0.25 mg/L in the test with M. tuberculosis H37Rv; 4.0 mg/L in the test with M. avium AIIMS; 0.06 mg/L with M. tuberculosis PC 4782; less than 0.03 mg/L in the test on M. avium ATCC 49601; 0.06 mg/L in the test with M. tuberculosis PC [5]. For the same compound, the MIC with M. tuberculosis SGPGI [6] was more than 32 mg/L; in the test with M avium ATCC 25291 it was more than 32 mg/L; in the test with M. avium ATCC 1723 it was 1.0 mg/L; in the test on M. intracellulare F21/12, 4.0 mg/L.

Values taken from patent publication US20060293307A1, “Oxazolidinone derivatives as antimicrobials” (priority 2002, published 2006).
